Source: ChEMBL document CHEMBL1132049, “Synthesis of novel analogues of the delta opioid ligand SNC-80 using REM resin” (Bioorg Med Chem Lett, 1999)
pIC50: −log10 of the molar value.

Experiments:
[1] = molecular target: T1, Delta-type opioid receptor (Homo sapiens, UniProt P41143); test: Binding inhibition of [3H]- -naltrindole (0.15 nM) to membranes in CHO cells expressing Opioid receptor delta 1; assay type: cell-based
Mu-type opioid receptor = Mu-type opioid receptor (Rattus norvegicus, UniProt P33535); test: Binding affinity towards mu opioid receptor using [3H]- -DAMGO (1.5 nM) as radioligand in rat brain membranes; assay type: cell membranes
[2] = molecular target: Kappa-type opioid receptor (Cavia porcellus, UniProt P41144); test: Binding affinity towards Opioid receptor kappa 1 using [3H]- U-69,593 (1.5 nM) as radioligand in guinea pig brain membranes; assay type: cell membranes, Membrane
[3] = molecular target: T1, Delta-type opioid receptor; test: Compound was tested for inhibition of binding of [3H]- -naltrindole (0.15 nM) to membranes from CHO cells expressing human delta opioid receptor; assay type: cell membranes

Chain of Kappa-type opioid receptor (P41144 whole entry): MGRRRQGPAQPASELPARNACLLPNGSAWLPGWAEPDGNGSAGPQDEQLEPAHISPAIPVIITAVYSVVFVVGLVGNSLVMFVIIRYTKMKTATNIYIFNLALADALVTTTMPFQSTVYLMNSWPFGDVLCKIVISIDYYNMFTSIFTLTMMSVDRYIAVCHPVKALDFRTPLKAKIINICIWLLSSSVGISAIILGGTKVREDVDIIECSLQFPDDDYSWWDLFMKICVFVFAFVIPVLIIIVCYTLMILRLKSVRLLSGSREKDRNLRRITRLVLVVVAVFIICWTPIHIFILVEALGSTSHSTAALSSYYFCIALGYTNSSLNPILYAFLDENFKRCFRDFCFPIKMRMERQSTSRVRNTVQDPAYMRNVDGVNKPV
T1 sequence (P41143 whole entry): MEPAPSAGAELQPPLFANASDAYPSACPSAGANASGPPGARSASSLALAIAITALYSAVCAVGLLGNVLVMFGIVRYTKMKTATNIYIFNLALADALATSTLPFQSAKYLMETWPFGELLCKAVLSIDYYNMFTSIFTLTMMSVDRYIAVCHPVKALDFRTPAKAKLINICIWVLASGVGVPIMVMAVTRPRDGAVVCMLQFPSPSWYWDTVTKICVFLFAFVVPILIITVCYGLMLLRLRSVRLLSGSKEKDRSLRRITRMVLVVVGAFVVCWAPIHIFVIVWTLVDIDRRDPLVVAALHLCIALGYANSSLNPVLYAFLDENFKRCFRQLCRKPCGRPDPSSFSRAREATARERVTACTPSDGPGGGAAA
Chain of Mu-type opioid receptor (P33535 whole entry): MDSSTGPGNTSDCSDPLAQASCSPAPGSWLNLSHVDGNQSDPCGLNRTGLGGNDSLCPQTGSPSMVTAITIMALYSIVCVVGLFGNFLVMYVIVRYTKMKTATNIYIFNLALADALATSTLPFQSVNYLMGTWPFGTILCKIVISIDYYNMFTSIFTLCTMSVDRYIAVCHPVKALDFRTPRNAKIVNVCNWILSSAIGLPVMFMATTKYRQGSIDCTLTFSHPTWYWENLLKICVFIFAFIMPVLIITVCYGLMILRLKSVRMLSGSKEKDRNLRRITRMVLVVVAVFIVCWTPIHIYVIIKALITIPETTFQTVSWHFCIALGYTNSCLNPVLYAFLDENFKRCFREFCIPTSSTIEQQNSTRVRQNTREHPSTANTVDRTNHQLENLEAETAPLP

`C=CCN1CCN(C(c2ccccc2)c2ccc(C(=O)O)cc2)CC1` (configuration not stated) gave a pIC50 [1] of 5.09.
With `C=CCN1CCN(C(c2ccccc2)c2ccc(C(=O)N(C)C)cc2)CC1` (configuration not stated) the pIC50 [1] was 7.35 and the pIC50 (Mu-type opioid receptor) was < 4.30.
Work on `C=CCN1C[C@H](C)N([C@@H](c2ccc(C(=O)OC)cc2)c2cccc(OC)c2)C[C@H]1C` yielded a pIC50 [1] of 6.62 and a pIC50 (Mu-type opioid receptor) of 5.44.
With `C=CCN1CCN([C@H](c2ccc(C(=O)N(CC)CC)cc2)c2cccc(OC)c2)CC1` the pIC50 [1] was 8.13, the pIC50 [2] was < 5.00 and the pIC50 (Mu-type opioid receptor) was < 5.00.
For `C=CCN1CCN(C(c2ccccc2)c2ccc(C(=O)OC)cc2)CC1` (configuration not stated), the pIC50 [1] was 6.22.
For `C=CCN1CCN(C(c2ccccc2)c2ccc(-c3cccnc3)cc2)CC1` (configuration not stated), the pIC50 [1] was 6.30.
For `C=CCN1CCN(C(c2ccccc2)c2ccc(C(=O)Nc3ccc(OC)cc3)cc2)CC1` (configuration not stated), the pIC50 [1] was 5.72.
Compound `C=CCN1CCN(C(c2ccccc2)c2ccc(C(=O)NCC)cc2)CC1` (configuration not stated) has a pIC50 [1] of 6.44.
In the case of `C=CCN1CCN([C@@H](c2ccccc2)c2ccc(C(=O)N(CC)CC)cc2)CC1`, the pIC50 [1] was 8.39, the pIC50 [2] was < 5.00 and the pIC50 (Mu-type opioid receptor) was < 5.00.
`C=CCN1C[C@H](C)N([C@@H](c2ccc(C(=S)N(CC)CC)cc2)c2cccc(OC)c2)C[C@H]1C` showed a pIC50 [1] of 8.28, a pIC50 [2] of 5.07 and a pIC50 (Mu-type opioid receptor) of 5.20.
In the case of `C=CCN1CCN(C(c2ccccc2)c2ccc(-c3cccs3)cc2)CC1` (configuration not stated), the pIC50 [1] was 5.59.
Work on `C=CCN1C[C@H](C)N([C@@H](c2ccc(-c3ccccn3)cc2)c2cccc(OC)c2)C[C@H]1C` yielded a pIC50 [1] of 7.66, a pIC50 [2] of 5.68 and a pIC50 (Mu-type opioid receptor) of 5.19.
With `C=CCN1C[C@H](C)N([C@@H](c2ccc(C(=O)O)cc2)c2cccc(OC)c2)C[C@H]1C` the pIC50 [1] was 6.35 and the pIC50 (Mu-type opioid receptor) was < 5.00.
For `C=CCN1CCN(C(c2ccccc2)c2ccc(C(=O)N(CCC)CC3CC3)cc2)CC1` (configuration not stated), the pIC50 [1] was 8.52 and the pIC50 (Mu-type opioid receptor) was < 5.00.
`C=CCN1C[C@H](C)N(C(c2ccccc2)c2ccccc2)C[C@H]1C` showed a pIC50 [1] of 6.38 and a pIC50 (Mu-type opioid receptor) of 6.42.
With `C=CCN1CCN(C(c2ccccc2)c2ccc(-c3ccccn3)cc2)CC1` (configuration not stated) the pIC50 [1] was 6.60.
`C=CCN1CCN(C(c2ccccc2)c2ccc(C(=O)N(CCC)CCC)cc2)CC1` (configuration not stated) showed a pIC50 [1] of 8.14 and a pIC50 (Mu-type opioid receptor) of 4.38.
In the case of `C=CCN1CCN(C(c2ccccc2)c2ccc(-c3ccccc3)cc2)CC1` (configuration not stated), the pIC50 [1] was 5.76.
In the case of `C=CCN1CCN(C(c2ccccc2)c2ccc(C(=O)N(CC)CC)cc2)CC1` (configuration not stated), the pIC50 [3] was 8.30 and the pIC50 (Mu-type opioid receptor) was < 5.00.
For `C=CCN1CCN(C(c2ccccc2)c2ccc(C(=O)OCC)cc2)CC1` (configuration not stated), the pIC50 [1] was 5.86.
With `C=CCN1CCN(C(c2ccccc2)c2ccc(C(=O)N(Cc3cccnc3)CC(OCCC)OCCC)cc2)CC1` (configuration not stated) the pIC50 [1] was 8.40 and the pIC50 (Mu-type opioid receptor) was < 5.00.
In the case of `C=CCN1C[C@H](C)N([C@H](c2ccccc2)c2ccc(C(=O)N(CC)CC)cc2)C[C@H]1C`, the pIC50 [1] was 8.96, the pIC50 [2] was < 5.00 and the pIC50 (Mu-type opioid receptor) was 5.19.
`C=CCN1CCN(C(c2ccccc2)c2ccc(C(=O)N3CCCCC3)cc2)CC1` (configuration not stated) was tested, and the pIC50 [1] was 7.08 and the pIC50 (Mu-type opioid receptor) was < 4.67.
